Data published in patent US10738053B2, “Bicyclic compounds as dual ATX/CA inhibitors” (Hoffmann-La Roche Inc., priority 2015, dated 2020).

How the values were obtained:
[1] = molecular target: Human carbonic anhydrase II (hCA-II) (Homo sapiens (Human), UniProt P00918); assay: Human carbonic anhydrase-II inhibition assay (absorbance, 4-NPA substrate); format: biochemical; settings: hCA II 8 nM, 4-NPA 2.5 mM, absorbance 340 nm; read-out: CA-II IC50
Description: Human Carbonic Anhydrase-II Inhibition Assay
Then 30 μL of 16 nM hCA II solution was added (8 nM final concentration), mixed five times. 30 μL of 4-NPA substrate solution was added (2.5 mM final concentration), mixed five times.

human ATX = human ATX (Homo sapiens (Human), UniProt Q13822); assay: Human ATX enzyme inhibition assay (fluorescence quenching, MR121 substrate); format: biochemical; settings: human His-tagged ATX 30 nM, MR121 substrate 1 μM
Description: Production of Human Full Length ATX, with and without His Tag
Autotaxin (ATX-ENPP2) cloning: cDNA was prepared from commercial human hematopoietic cells total RNA and used as template in overlapping PCR to generate a full length human ENPP2 ORF with or without a 3′-6× His tag. These full length inserts were cloned into the pcDNA3.1V5-His TOPO (Invitrogen) vector. The DNA sequences of several single clones were verified. The DNA from a correct full length clone was used to transfect Hek293 cells for verification of protein expression. The sequence of the encoded ENPP2 conforms to Swissprot entry Q13822, with or without the additional C-terminal 6× His tag.
ATX Fermentation: Recombinant protein was produced by large-scale transient transfection in 20 L controlled stirred tank bioreactors (Sartorius). During cell growth and transfection, temperature, stirrer speed, pH and dissolved oxygen concentration were maintained at 37° C., 120 rpm, 7.1 and 30% DO, respectively. FreeStyle 293-F cells (Invitrogen) were cultivated in suspension in FreeStyle 293 medium (Invitrogen) and transfected at ca. 1-1.5×10E6 cells/mL with above plasmid DNAs using X-tremeGENE Ro-1539 (commercial product, Roche Diagnostics) as complexing agent. Cells were fed a concentrated nutrient solution (J Immunol Methods 194 (1996), 19, 1-199 (page 193)) and induced by sodium butyrate (2 mM) at 72 h post-transfection and harvested at 96 h post-transfection. Expression was analyzed by Western Blot, enzymatic assay and/or analytical IMAC chromatography. After cooling the cell suspension to 4° C. in a flow-through heat exchanger, cell separation and sterile filtration of supernatant was performed by filtration through Zeta Plus 60M02 E16 (Cuno) and Sartopore 2 XLG (Sartorius) filter units. The supernatant was stored at 4° C. prior to purification.
ATX Purification: 20 liter of culture supernatant were conditioned for ultrafiltration by adding Brij 35 to a final concentration of 0.02% and by adjusting the pH to 7.0 using 1 M HCl. Then the supernatant was first microfiltred through a 0.2 µm Ultran-Pilot Open Channel PES filter (Whatman) and afterwards concentrated to 1 liter through an Ultran-Pilot Screen Channel PES filter with 30 kDa MWCO (Whatman). Prior to IMAC chromatography, NiSO4 was added to a final concentration of 1 mM. […] The column was washed stepwise with the same buffer containing 20 mM, 40 mM and 50 mM imidazole, respectively. The protein was subsequently eluted using a linear gradient to 0.5 M imidazole in 15 column volumes. ATX containing fractions were pooled and concentrated using an Amicon cell equipped with a 30 kDa PES filter membrane. […] Final yield of protein after purification was 5-10 mg ATX per liter of culture supernatant. The protein was stored at −80° C.
Human ATX Enzyme Inhibition Assay
Test compounds (10 mM stock in DMSO, 8 μL) were obtained in 384 well sample plates (Corning Costar #3655) and diluted with 8 μL DMSO. […] Then, 15 μL of 41.7 nM ATX solution was added (30 nM final concentration), mixed five times and then incubated for 15 minutes at 30° C. 10 μL of MR121 substrate solution was added (1 μM final concentration), mixed 30 times and then incubated for 15 minutes at 30° C.

IC50 [1]	IC50 (human ATX)	SMILES
5 nM	8 nM	CO[C@]12CN(C(=O)OCc3ncc(C(F)(F)F)cc3NC(=O)C(C)(C)C)C[C@@H]1CN(C(=O)c1ccc(S(N)(=O)=O)cc1F)C2 (racemic) [Example 1.00, trans-5-(2-Fluoro-4-sulfamoyl-benzoyl)-3a-methoxy-hexahydro-pyrrolo[3,4-c]pyrrole-2-carboxylic acid 3-(2,2-dimethyl-propionylamino)-5-trifluoromethyl-pyridin-2-ylmethyl ester]
13 nM	6 nM	CO[C@]12CN(C(=O)OCc3ncc(C(F)(F)F)cc3NC(=O)C(C)(C)C)C[C@@H]1CN(C(=O)c1ccc(S(N)(=O)=O)cn1)C2 (relative stereo) [Example 1.07, trans-5-(5-sulfamoylpyridine-2-carbonyl)-3a-methoxy-hexahydro-pyrrolo[3,4-c]pyrrole-2-carboxylic acid 3-(2,2-dimethyl-propionylamino)-5-trifluoromethyl-pyridin-2-ylmethyl ester]
6 nM	7 nM	NS(=O)(=O)c1ccc(C(=O)N2C[C@H]3CN(C(=O)OCc4ccc(OC(F)(F)F)cc4)C[C@]3(F)C2)c(F)c1 (relative stereo) [Example 2.00, trans-5-(2-Fluoro-4-sulfamoyl-benzoyl)-3a-fluoro-hexahydro-pyrrolo[3,4-c]pyrrole-2-carboxylic acid 4-trifluoromethoxy-benzyl ester]
6 nM	4 nM	NS(=O)(=O)c1ccc(C(=O)N2C[C@H]3CN(C(=O)CCc4ccc(OC(F)(F)F)cc4)C[C@]3(F)C2)c(F)c1 (relative stereo) [Example 3.03, trans-4-[3a-fluoro-2-[3-[4-(trifluoromethoxy)phenyl]propanoyl]-3,4,6,6a-tetrahydro-1H-pyrrolo[3,4-c]pyrrole-5-carbonyl]-3-fluorobenzenesulfonamide]
10 nM	6 nM	CO[C@@]12CN(C(=O)c3cc(OCC4CCOCC4)nc(C4CC4)c3)C[C@H]1CN(C(=O)c1ccc(S(N)(=O)=O)cc1F)C2 (relative stereo) [Example 1.02, trans-4-[5-[2-cyclopropyl-6-(oxan-4-ylmethoxy)pyridine-4-carbonyl]-3a-methoxy-3,4,6,6a-tetrahydro-1H-pyrrolo[3,4-c]pyrrole-2-carbonyl]-3-fluorobenzenesulfonamide]
